What all share (assay): DSF 100 kinase selectivity screen;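 also: compound tested at 20 µM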
Holding throughout (type): binding

The target in assay [1] is T1, ~100 representative kinases (Homo sapiens, UniProt P54753).
T1 construct: Recombinant protein kinase domains with a concentration of 2 μM
T1 sequence (P54753 34-998): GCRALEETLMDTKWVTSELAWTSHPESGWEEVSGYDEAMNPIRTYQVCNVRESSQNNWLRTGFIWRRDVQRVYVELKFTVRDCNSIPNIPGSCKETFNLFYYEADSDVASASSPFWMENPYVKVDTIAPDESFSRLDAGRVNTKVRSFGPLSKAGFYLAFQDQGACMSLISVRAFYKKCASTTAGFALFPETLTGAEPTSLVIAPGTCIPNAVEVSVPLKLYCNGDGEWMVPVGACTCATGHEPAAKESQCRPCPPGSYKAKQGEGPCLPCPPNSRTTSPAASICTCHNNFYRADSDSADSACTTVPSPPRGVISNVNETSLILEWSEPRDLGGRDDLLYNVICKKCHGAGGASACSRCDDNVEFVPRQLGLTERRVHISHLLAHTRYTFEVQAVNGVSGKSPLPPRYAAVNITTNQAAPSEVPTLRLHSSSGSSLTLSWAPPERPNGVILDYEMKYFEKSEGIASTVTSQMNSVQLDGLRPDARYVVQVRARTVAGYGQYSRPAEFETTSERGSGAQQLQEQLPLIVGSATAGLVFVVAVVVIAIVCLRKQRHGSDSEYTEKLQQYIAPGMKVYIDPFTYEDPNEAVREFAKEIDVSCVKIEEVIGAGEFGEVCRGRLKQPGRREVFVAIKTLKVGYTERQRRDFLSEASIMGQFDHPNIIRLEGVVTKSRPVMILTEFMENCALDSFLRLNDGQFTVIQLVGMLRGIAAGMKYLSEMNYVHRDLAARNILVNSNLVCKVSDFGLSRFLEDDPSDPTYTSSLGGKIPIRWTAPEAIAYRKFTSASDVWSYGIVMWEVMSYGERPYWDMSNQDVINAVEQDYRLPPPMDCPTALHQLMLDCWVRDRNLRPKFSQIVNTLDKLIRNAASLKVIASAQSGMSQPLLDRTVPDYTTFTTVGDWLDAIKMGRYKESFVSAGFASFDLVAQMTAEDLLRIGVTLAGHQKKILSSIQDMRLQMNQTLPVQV
To be noted: Protein EPHB3A; average of three replicates. The procedure, abridged: (§1)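 Each kinase domain, at 2 μM, is mixed with 20 μM test compound and SYPRO Orange in Hepes (20 mM, pH 7.5) with 500 mM NaCl. Temperature is then raised at 3°C/min and fluorescence-monitored unfolding yields the melting temperature change, ΔTm in degrees Celsius.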

Assay [2] addresses T2, ~100 representative kinases (Homo sapiens, UniProt P55201).
T2 construct: Recombinant protein kinase domains with a concentration of 2 μM
T2 sequence (P55201 1-1214): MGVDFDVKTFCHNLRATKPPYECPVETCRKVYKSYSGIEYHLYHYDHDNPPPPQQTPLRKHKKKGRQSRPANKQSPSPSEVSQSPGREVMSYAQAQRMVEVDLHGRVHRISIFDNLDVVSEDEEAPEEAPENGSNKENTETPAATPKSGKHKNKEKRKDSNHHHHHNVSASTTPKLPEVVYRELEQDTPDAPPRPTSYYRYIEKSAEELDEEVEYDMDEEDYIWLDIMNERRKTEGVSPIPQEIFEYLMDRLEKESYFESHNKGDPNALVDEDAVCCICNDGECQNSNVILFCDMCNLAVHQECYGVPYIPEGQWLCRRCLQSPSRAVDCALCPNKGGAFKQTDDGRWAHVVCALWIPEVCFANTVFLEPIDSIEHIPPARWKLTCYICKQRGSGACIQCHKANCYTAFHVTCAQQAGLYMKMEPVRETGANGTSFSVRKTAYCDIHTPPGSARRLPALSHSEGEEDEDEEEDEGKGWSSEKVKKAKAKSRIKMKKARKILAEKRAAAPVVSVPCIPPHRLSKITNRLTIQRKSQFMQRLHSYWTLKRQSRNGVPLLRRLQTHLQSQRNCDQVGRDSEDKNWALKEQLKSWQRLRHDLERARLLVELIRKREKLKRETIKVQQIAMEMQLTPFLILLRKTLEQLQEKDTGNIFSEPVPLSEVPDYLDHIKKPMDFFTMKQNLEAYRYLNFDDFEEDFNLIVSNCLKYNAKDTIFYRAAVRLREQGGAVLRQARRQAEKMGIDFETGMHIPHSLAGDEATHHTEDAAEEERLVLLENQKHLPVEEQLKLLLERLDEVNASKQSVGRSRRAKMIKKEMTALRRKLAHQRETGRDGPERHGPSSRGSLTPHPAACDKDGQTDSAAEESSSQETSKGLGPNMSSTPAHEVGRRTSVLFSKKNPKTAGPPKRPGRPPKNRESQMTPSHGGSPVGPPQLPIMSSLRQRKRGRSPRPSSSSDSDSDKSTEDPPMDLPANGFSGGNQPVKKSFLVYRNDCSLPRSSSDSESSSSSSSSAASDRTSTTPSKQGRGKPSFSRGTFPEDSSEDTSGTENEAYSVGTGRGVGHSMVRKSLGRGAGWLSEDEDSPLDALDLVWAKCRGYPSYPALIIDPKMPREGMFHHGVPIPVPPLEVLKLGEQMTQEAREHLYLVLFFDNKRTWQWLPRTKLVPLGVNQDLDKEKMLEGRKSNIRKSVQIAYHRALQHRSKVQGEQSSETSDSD
The following applies: Protein BRPF1; average of three replicates. The method in brief:
as §1

In assay [3] the target is T3, ~100 representative kinases (Homo sapiens, UniProt Q96SB4).
T3 construct: Recombinant protein kinase domains with a concentration of 2 μM
T3 sequence (Q96SB4 whole entry, the tested form may be a part): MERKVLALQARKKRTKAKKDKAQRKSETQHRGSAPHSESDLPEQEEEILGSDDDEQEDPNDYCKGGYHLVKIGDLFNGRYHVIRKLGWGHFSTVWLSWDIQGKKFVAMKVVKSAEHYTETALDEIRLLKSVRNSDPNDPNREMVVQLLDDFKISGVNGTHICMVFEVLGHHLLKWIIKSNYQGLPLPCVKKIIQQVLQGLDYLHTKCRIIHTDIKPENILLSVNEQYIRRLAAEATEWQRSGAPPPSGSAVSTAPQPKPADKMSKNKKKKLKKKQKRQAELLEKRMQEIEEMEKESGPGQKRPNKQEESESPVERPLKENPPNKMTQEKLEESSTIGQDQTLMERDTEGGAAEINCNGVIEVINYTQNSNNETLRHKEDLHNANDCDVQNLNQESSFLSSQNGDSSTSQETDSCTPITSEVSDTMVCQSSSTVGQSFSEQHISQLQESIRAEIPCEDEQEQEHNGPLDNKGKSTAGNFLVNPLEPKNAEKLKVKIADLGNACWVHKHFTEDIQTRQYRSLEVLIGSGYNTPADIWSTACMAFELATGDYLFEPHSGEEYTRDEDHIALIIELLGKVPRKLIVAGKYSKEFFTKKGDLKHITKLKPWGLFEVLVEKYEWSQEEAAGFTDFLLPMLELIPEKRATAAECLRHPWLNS
To be noted: Protein SRPK1; DSF; average of three replicates. The procedure, abridged: as §1

SMILES strings stand for the structures.

For the molecule `Cc1ccc(C(=O)Nc2ccc(CN3CCN(C)CC3)c(C(F)(F)F)c2)cc1C#Cc1c[nH]c2ncnc(N3CCOCC3)c12` [Compound 1], the dTm is 4.94 K in assay [1], -0.28 K in assay [2] and 15.50 K in assay [3].
Taken in the same sequence, the figures for `O=C(Nc1ccc(F)cc1)C1(C(=O)Nc2cccc(-c3c[nH]c4ncnc(N5CCOCC5)c34)c2)CC1` [Compound 2] were 2.82 K, 0.13 K and 10.56 K.
Taken in the same sequence, the figures for `O=C(Nc1cccc(-c2c[nH]c3ncnc(N4CCOCC4)c23)c1)c1cccn(-c2ccc(F)cc2)c1=O` [Compound 4] were 3.66 K, -1.48 K and 9.86 K.
Taken in the same sequence, the figures for `Cc1cc(NC(=O)C2(C(=O)Nc3ccc(F)cc3)CC2)cc(-c2c[nH]c3ncnc(N4CCOCC4)c23)c1` [Compound 6] were 0.34 K, 0.87 K and 7.72 K.
Regarding `O=C(Nc1cccc(-c2c[nH]c3ncnc(N4CCOCC4)c23)c1)C1(C(=O)Nc2cccc3c2CCC3)CC1` [Compound 11], the results for the dTm in assay [1], in assay [2] and in assay [3] were 0.28 K, 1.49 K and 6.49 K, respectively.
Turning to `O=C(Nc1ccccc1)C1(C(=O)Nc2cccc(-c3c[nH]c4ncnc(N5CCOCC5)c34)c2)CC1` [Compound 12], the results for the dTm in assay [1], in assay [2] and in assay [3] were 3.99 K, -0.42 K and 7.66 K, respectively.
For the molecule `O=C(Nc1ccc(Cl)cc1)C1(C(=O)Nc2cccc(-c3c[nH]c4ncnc(N5CCOCC5)c34)c2)CC1` [Compound 13], the dTm is 5.32 K in assay [1], -0.65 K in assay [2] and 12.04 K in assay [3].
Taken in the same sequence, the figures for `Cc1ccc(NC(=O)C2(C(=O)Nc3cccc(-c4c[nH]c5ncnc(N6CCOCC6)c45)c3)CC2)cc1` [Compound 14] were 3.71 K, -0.72 K and 7.30 K.
Taken in the same sequence, the figures for `CCc1ccc(NC(=O)C2(C(=O)Nc3cccc(-c4c[nH]c5ncnc(N6CCOCC6)c45)c3)CC2)cc1` [Compound 15] were 4.01 K, -0.75 K and 5.47 K.
Taken in the same sequence, the figures for `COc1ccc(NC(=O)C2(C(=O)Nc3cccc(-c4c[nH]c5ncnc(N6CCOCC6)c45)c3)CC2)cc1` [Compound 16] were 0.59 K, -0.96 K and 3.35 K.
Consider `O=C(Nc1cccc(-c2c[nH]c3ncnc(N4CCOCC4)c23)c1)C1(C(=O)Nc2ccc(F)c(F)c2)CC1` [Compound 17], for which the dTm in assay [1] worked out at 1.94 K; in assay [2], 0.79 K; in assay [3], 8.69 K.
Taken in the same sequence, the figures for `O=C(Nc1cccc(-c2c[nH]c3ncnc(N4CCOCC4)c23)c1)C1(C(=O)Nc2ccc(F)c(Cl)c2)CC1` [Compound 18] were 2.57 K, 1.47 K and 12.10 K.
Taken in the same sequence, the figures for `O=C(Nc1cccc(-c2c[nH]c3ncnc(N4CCOCC4)c23)c1)C1(C(=O)Nc2ccc(F)c(Br)c2)CC1` [Compound 19] were 1.12 K, 2.17 K and 7.58 K.
With `Cc1cc(NC(=O)C2(C(=O)Nc3cccc(-c4c[nH]c5ncnc(N6CCOCC6)c45)c3)CC2)ccc1F` [Compound 20], the dTm in assay [1] was 3.99 K; in assay [2], 0.26 K; in assay [3] it was 13.77 K.
Taken in the same sequence, the figures for `COc1cc(NC(=O)C2(C(=O)Nc3cccc(-c4c[nH]c5ncnc(N6CCOCC6)c45)c3)CC2)ccc1F` [Compound 21] were 0.65 K, -0.32 K and 11.40 K.
Taken in the same sequence, the figures for `CC(C)(C)c1cccc(NC(=O)C2(C(=O)Nc3cccc(-c4c[nH]c5ncnc(N6CCOCC6)c45)c3)CC2)c1` [Compound 22] were 0.59 K, 1.91 K and 9.79 K.
Consider `O=C(Nc1cccc(-c2c[nH]c3ncnc(N4CCOCC4)c23)c1)C1(C(=O)Nc2ccc(F)cc2F)CC1` [Compound 23], for which the dTm was determined as 1.84 K in assay [1], 0.18 K in assay [2] and 6.35 K in assay [3].
For `Cc1cc(F)ccc1NC(=O)C1(C(=O)Nc2cccc(-c3c[nH]c4ncnc(N5CCOCC5)c34)c2)CC1` [Compound 24], the dTm is reported as 1.32 K in assay [1], -0.10 K in assay [2] and 3.79 K in assay [3].
Taken in the same sequence, the figures for `O=C(Nc1cccc(-c2c[nH]c3ncnc(N4CCOCC4)c23)c1)C1(C(=O)Nc2cc(Br)c(F)cc2F)CC1` [Compound 25] were -0.88 K, 1.93 K and 4.56 K.
Taken in the same sequence, the figures for `O=C(Nc1cccc(-c2c[nH]c3ncnc(N4CCOCC4)c23)c1)C1(C(=O)Nc2ccc(F)c(Br)c2F)CC1` [Compound 26] were -0.51 K, 1.97 K and 4.06 K.
Taken in the same sequence, the figures for `O=C(Nc1cc(F)cc(Br)c1)C1(C(=O)Nc2cccc(-c3c[nH]c4ncnc(N5CCOCC5)c34)c2)CC1` [Compound 27] were -2.17 K, 2.67 K and -0.47 K.
In the case of `CC(C)(C)c1cc(NC(=O)Nc2cccc(-c3c[nH]c4ncnc(N5CCOCC5)c34)c2)n(-c2ccc3ncccc3c2)n1` [Compound 28], the dTm in assay [1] came to 11.98 K; in assay [2] it was 0.57 K; in assay [3], 16.05 K.
Take `Cc1ccc(-n2nc(C(C)(C)C)cc2NC(=O)Nc2cccc(-c3c[nH]c4ncnc(N5CCOCC5)c34)c2)cc1` [Compound 29]: the dTm in assay [1] is -2.20 K; in assay [2], 0.08 K; in assay [3] it was 11.63 K.
Taken in the same sequence, the figures for `Cc1ccc(-n2nc(C(C)(C)C)cc2NC(=O)Nc2cccc(-c3c[nH]c4nc(Cl)nc(N5CCOCC5)c34)c2)cc1` [Compound 30] were 0.0373 K, -1.99 K and 4.87 K.
On to `Cc1ccc(C(=O)Nc2ccc(CN3CCN(C)CC3)c(C(F)(F)F)c2)cc1C#Cc1cnc2cccnn12` [Ponatinib, reference compound], for which the dTm in assay [1] came out at 13.49 K.
For the molecule `CN[C@@H]1C[C@H]2O[C@@](C)([C@@H]1OC)n1c3ccccc3c3c4c(c5c6ccccc6n2c5c31)C(=O)NC4` [Staurosporine], the dTm is listed as 7.02 K in assay [1] and 7.17 K in assay [3].

The values above are taken from publication PMC12136037, “Type II kinase inhibitors that target Parkinson’s disease–associated LRRK2” (Science Advances, 2025).
